Laboratory results as given in patent US20210395239A1 (Hoffmann-La Roche Inc., priority 2018, published 2021).

How the values were obtained:
CYP2C9 = target: T1, CYP2C9 (Homo sapiens, UniProt P11712); experiment: CYP inhibition assay in human liver microsome, CYP2C9; format: in vitro ADME; settings: human, human liver microsomes, probe diclofenac 5 μM, substrate diclofenac 5 μM, first value of 2C9/2D6/3A4
T1 construct: tissue BD-Gentest 452117; host or cells: human liver microsomes
How it was run: (§1)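 Pooled human liver microsomes with a substrate for each CYP were incubated with compound at 37 °C after NADPH addition, for 5 min (CYP2D6: 10 min), then quenched with acetonitrile containing labelled metabolite standards. Metabolite/internal-standard peak area ratios were measured by RapidFire MS/MS. % inhibition was scaled between DMSO and standard-inhibitor controls.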

human TLR7 = target: T2, human TLR7 (Homo sapiens, UniProt Q9NYK1); experiment: HEK293-Blue-hTLR-7 cells assay (SEAP reporter, R848 stimulation); format: cell-based; settings: HEK293-Blue-hTLR7 cells, R848, 20 hrs; read-out: HEK/hTLR7 IC50
T2 construct: host or cells: HEK293 (HEK-Blue hTLR7)
T2 sequence (Q9NYK1 27-1049): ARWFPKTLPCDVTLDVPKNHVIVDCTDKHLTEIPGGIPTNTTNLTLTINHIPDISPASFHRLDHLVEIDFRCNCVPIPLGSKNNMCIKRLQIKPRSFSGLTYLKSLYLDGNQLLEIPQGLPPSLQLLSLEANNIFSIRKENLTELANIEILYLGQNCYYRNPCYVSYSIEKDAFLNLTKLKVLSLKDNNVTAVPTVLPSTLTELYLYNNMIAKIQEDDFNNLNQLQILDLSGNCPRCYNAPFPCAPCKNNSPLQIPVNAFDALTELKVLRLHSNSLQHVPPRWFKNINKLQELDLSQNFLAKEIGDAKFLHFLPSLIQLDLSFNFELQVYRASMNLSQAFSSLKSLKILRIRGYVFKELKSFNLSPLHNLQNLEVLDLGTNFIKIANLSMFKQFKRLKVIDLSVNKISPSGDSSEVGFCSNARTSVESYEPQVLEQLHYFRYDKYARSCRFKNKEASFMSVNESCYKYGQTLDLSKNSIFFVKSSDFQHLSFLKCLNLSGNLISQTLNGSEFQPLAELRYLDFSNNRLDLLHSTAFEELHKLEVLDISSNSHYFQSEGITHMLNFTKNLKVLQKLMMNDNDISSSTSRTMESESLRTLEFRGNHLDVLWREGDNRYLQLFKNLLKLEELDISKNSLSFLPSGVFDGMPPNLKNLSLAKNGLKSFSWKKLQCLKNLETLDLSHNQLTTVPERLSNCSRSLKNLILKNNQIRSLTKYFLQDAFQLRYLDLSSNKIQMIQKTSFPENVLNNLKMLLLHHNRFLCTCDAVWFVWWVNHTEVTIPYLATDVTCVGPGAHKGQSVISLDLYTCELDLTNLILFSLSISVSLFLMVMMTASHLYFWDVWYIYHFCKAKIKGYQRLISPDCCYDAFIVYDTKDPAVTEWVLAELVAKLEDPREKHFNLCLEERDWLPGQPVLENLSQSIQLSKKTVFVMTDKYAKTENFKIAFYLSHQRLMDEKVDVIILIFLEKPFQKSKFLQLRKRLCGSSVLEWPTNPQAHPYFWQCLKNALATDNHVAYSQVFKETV
How it was run: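 HEK293-Blue-hTLR7 cells (NF-κB/AP-1-driven SEAP reporter) were stimulated with R848 alongside serially diluted compound at 1% final DMSO for 20 h at 37 °C. Supernatant SEAP was then developed with QUANTI-Blue for 2 h at 37 °C and absorbance read at 620–655 nm; antagonism is measured as reduced reporter signal.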

CYP3A4 = target: T3, CYP3A4 (Homo sapiens, UniProt P08684); experiment: CYP inhibition assay in human liver microsome, CYP3A4; format: in vitro ADME; settings: human, human liver microsomes, probe midazolam 5 μM, substrate midazolam 5 μM, third value of 2C9/2D6/3A4
T3 construct: tissue BD-Gentest 452117; host or cells: human liver microsomes
How it was run: as §1

T1 sequence (P11712 whole entry): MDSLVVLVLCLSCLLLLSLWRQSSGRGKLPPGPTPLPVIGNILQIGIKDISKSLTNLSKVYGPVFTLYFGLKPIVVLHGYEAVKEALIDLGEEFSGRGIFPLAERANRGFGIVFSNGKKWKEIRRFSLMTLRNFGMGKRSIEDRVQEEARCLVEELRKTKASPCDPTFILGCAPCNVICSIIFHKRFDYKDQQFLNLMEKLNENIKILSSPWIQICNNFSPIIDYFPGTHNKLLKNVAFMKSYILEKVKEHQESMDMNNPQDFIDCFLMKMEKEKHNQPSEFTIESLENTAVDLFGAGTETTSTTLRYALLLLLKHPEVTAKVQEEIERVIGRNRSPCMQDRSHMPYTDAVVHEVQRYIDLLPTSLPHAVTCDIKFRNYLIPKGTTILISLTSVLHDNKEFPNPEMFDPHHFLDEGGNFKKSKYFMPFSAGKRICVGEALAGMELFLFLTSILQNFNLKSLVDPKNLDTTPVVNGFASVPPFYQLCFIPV
T3 sequence (P08684 whole entry): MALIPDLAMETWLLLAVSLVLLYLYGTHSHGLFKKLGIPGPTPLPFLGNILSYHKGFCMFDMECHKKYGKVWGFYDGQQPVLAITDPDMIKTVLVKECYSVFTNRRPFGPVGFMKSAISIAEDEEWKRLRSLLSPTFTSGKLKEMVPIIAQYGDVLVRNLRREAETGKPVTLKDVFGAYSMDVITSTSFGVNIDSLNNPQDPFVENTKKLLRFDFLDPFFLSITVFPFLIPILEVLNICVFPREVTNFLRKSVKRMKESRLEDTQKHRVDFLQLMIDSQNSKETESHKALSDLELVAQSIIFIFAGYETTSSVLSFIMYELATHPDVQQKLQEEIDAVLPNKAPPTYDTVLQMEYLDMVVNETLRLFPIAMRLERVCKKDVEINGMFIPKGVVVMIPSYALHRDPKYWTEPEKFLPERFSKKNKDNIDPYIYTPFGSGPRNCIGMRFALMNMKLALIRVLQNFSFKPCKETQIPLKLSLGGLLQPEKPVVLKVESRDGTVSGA

Row | inhibition at 5 min, 10 µM (CYP2C9) [%] | IC50 (human TLR7) [nM] | inhibition at 5 min, 10 µM (CYP3A4) [%] | SMILES
1 | -1 | 10 | 30.5 | CO[C@@H]1CN(c2ccc(C3CN(C[C@H]4CN(c5ccc(C#N)n6ncc(F)c56)C[C@@H](C)O4)C3)cn2)C[C@H]1N [Example 164, 4-[(2S,6R)-2-[[3-[6-[(3R,4R)-3-amino-4-methoxy-pyrrolidin-1-yl]-3-pyridyl]azetidin-1-yl]methyl]-6-methyl-morpholin-4-yl]-3-fluoro-pyrazolo[1,5-a]pyridine-7-carbonitrile]
2 | -8.5 | 7 | 9 | C[C@@H]1CN(c2ccc(C#N)n3ncc(F)c23)C[C@H](CN2CC(c3ccc(N4C[C@@H]5C[C@H]4CN5)nc3)C2)O1 [Example 165, 4-[(2S,6R)-2-[[3-[6-[(1S,4S)-2,5-diazabicyclo[2.2.1]heptan-2-yl]-3-pyridyl]azetidin-1-yl]methyl]-6-methyl-morpholin-4-yl]-3-fluoro-pyrazolo[1,5-a]pyridine-7-carbonitrile]
3 | -3.5 | 21 | 35.5 | CO[C@@H]1CN(c2ccc(N3CCN(C[C@H]4CN(c5ccc(C#N)n6ncc(F)c56)C[C@@H](C)O4)CC3)cn2)C[C@H]1N [Example 166, 4-[(2S,6R)-2-[[4-[6-[(3R,4R)-3-amino-4-methoxy-pyrrolidin-1-yl]-3-pyridyl]piperazin-1-yl]methyl]-6-methyl-morpholin-4-yl]-3-fluoro-pyrazolo[1,5-a]pyridine-7-carbonitrile]
